In publication PMC9503459, “Antifungal Activity, Structural Stability, and Immunomodulatory Effects on Human Immune Cells of Defensin from the Lentil Lens culinaris” (Membranes, 2022):
No end group written: not given here.

System: clinical isolate of Candida albicans (v47a3)
Assay: Antifungal microdilution assay, C. albicans
Assay type: cell-based
Conditions: 24 h; for inhibition of the growth: C. albicans
Procedure: The clinical isolates of Candida albicans (v47a3), C. krusei (225/2) and C. glabrata (252/2) were collected from patients with human immunodeficiency virus (HIV) infection and provided by G.N. Gabrichevsky Research Institute for Epidemiology and Microbiology (Moscow, Russia). Strains stocks were kept at −70 ℃ in 10% nonfat milk with 10% glycerol.
Antifungal susceptibility tests were performed by the microdilution method using 96-well microplates. Yeast cells in stock were inoculated onto modified YPD (yeast extract 5 g/L, peptone 10 g/L, glucose 10 g/L) agar plates, and incubated for 24 h at 37 ℃. After replating, cells were cultured in modified YPD broth at 37 ℃ to optical density 1.0 at 540 nm. Further, yeast cells in modified YPD broth at concentration of 5 × 10^4 cells/mL were mixed with equal volumes of serial two-fold dilutions of the peptide in water which started at the highest peptide concentration of 200 µM. Final peptide concentrations in the wells were 100, 50, 25, 12.5, 6.25, 3.125, and 1.56 μM. Controls without defensin were also tested. Plates were incubated at 30 ℃ during 24 h. Yeast growth was estimated using inverted microscope as well as by measuring the optical density at 540 nm. Percentage of growth inhibition was defined as: growth inhibition (%) = ((Acontrol − Asample)/Acontrol) × 100%. All of the experiments were performed twice in triplicate. The t-test was performed to study the statistical difference (p-value) between the means of controls and samples with different peptide concentrations. The experiment with lentil Lens culinaris lipid transfer protein Lc-LTP2 was carried out for comparison.

With “Lc-def: defensin from lentil Lens culinaris seeds (UniProt:B3F051), recombinant, overexpressed in Escherichia coli (KTCENLSDSFKGPCIPDGNCNKHCKEKEHLLSGRCRDDFRCWCTRNC; disulfide (positions not given here); ends not checked; also: disulfide bonds present, pairing not given here; UniProt B3F051 28-74, looked up)” the IC50 (C. albicans clinical isolate, microdilution, modified YPD, 30 °C, OD540, twice in triplicate, read-out: concentration causing 50% growth inhibition) was 25 to 50 µM, the “inhibition of the growth” value (50 μM peptide) was “approximately 80%” and the “inhibition of the growth” value (100 μM peptide) was under 100%.
